Measurements taken from patent publication US12344610B2, “APOL1 inhibitors and methods of use” (Maze Therapeutics, Inc., priority 2022, dated 2025).

How the values were obtained:
Assay type in all cases: cell-based
[1] = tested on: HEK293 cells overexpressing APOL1 G2; assay: APOL1 G2 HEK293 cell rescue assay (reversal of cell death caused by overexpression of APOL1); details: Homo sapiens, HEK293, HEK293 overexpressing APOL1 G2; geometric mean of at least 2 assay runs; † = single assay run
Procedure, shortened: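 EC50 is the half-maximal effective concentration for reversing cell death driven by APOL1 G2 overexpression in HEK293 cells. Reported as geometric mean of at least 2 runs on separate days, each run averaging duplicate wells per plate; some values from a single run.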

[2] = tested on: HEK293 clonal cell line overexpressing APOL1 G1; assay: APOL1 G1 HEK293 cell rescue assay (Example B3); details: Homo sapiens, HEK293, HEK293 clonal line overexpressing APOL1 G1; geometric mean of at least 2 runs; † = single run; ¥ = concentration at 50% rescue estimated (no sigmoidal curve)
Procedure, shortened: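 HEK293 clonal line overexpressing APOL1 G1; EC50 is half-maximal reversal of APOL1-induced cell death. Values are the geometric mean of ≥2 runs on separate days, each run the average of duplicate wells. Where no sigmoidal curve could be fitted, the concentration giving 50% rescue was estimated.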

[3] = tested on: Trypanosoma brucei Lister 427 VSG221 with APOL1 G0 recombinant protein; assay: APOL1 G0 trypanosome cell rescue assay (Example B5); details: Trypanosoma brucei, 20 h, read-out: APOL1 G0 Trypanosome Rescue EC50, Trypanosoma brucei Lister 427 VSG221 with APOL1 G0 recombinant protein, 20 hours, CellTiter-Glo; geometric mean of at least 2 assay runs; † = single assay run
Experimental: (§1) APOL1 G0/G1/G2 viability assay for measurement of cytotoxicity reversal by compound in trypanosomes (APOL1 G0/G1/G2 trypanosome cell rescue assay).
(§2) APOL1 protein expression and purification. The mature from of APOL1 proteins, residues 28-398, were expressed from a pET28a vector with an N-terminal His-tag and TEV cleavage site. Proteins were expressed in Escherichia coli BL21-CodonPlus (DE3)-RIPL cells. Liter cultures of terrific broth were grown at 37° C. until an OD600 of ˜0.8 was reached and then induced with isopropyl β-D-1-thiogalactopyranoside (IPTG; final concentration of 500 μM). Afterwards, cultures were grown for 3 hours at 37° C. For protein purification, cell pellets were resuspended in lysis buffer (50 mM Tris, pH 8.5, 5 mM EDTA, 0.5 mM DTT, 0.5 mM PMSF) supplemented with a cocktail of protease inhibitors. Cells were lysed by sonication, centrifuged, and the resulting pellet was collected. The homogenized pellet was resuspended in wash buffer (50 mM Tris, pH 8.5, 0.5 M NaCl, 5 mM EDTA, 0.5 mM DTT, 0.5 mM PMSF, protease inhibitor cocktail) and collected by centrifugation. Inclusion body dissolution was then conducted as previously reported (PNAS 112(9) (2015) 2894-2899; www.pnas.org/cgi/doi/10.1073/pnas.1421953112; herein incorporated by reference in its entirety). The solubilized APOL1 protein was applied to a nickel column (HisTrap, GE Life Sciences) preequilibrated in buffer A (50 mM Tris, pH 8.5, 0.15 M NaCl, 1% zwittergent 3-14, protease inhibitor cocktail). The resin was washed with buffer B (50 mM Tris, pH 8.5, 0.15 M NaCl, 0.1% DDM) and TEV cleavage was conducted on column overnight. Afterwards, the column was washed with buffer B, followed by His-washing buffer (50 mM Tris, pH 8.5, 0.15 M NaCl, 0.1% DDM, 10 mM imidazole). The protein was then removed from the resin using His-elution buffer (50 mM Tris, pH 8.5, 0.15 M NaCl, 0.1% DDM, 250 mM imidazole). The sample was further purified by size exclusion chromatography using a Superdex 200 Increase column (GE Life Sciences) in 50 mM Tris, pH 8.5, 0.15 M NaCl, and 0.1% DDM buffer. All APOL1 proteins (G0, G1, and G2) were generated at Viva Biotech (Shanghai) Ltd.
(§3) Modified HMI-9 media preparation (https://tryps.rockefeller.edu/trypsru2_culture_media_preparation.html; herein incorporated by reference in its entirety). Trypanosomes were cultured in modified HMI-9 media consisting of IMDM (ThermoFisher, 12440053), 10% heat-inactivated FBS (Gibco, 10082-147), 10% Serum Plus (Sigma-Aldrich, 14008C), 1×HMI-9 supplement stock, and 1% hypoxanthine stock. The 10×HMI-9 supplement stock was made by dissolving 280 mg bathocuproine disulfonic acid (Sigma-Aldrich, 146625), 1820 mg cysteine (add after bathocuproine) (Sigma-Aldrich, 30089), 1100 mg pyruvic acid (Sigma-Aldrich, 107360), 100 mg uracil (Sigma-Aldrich, U0750), 100 mg cytosine (Sigma-Aldrich, C3506) and 140 μL 2-mercaptoethanol (Sigma-Aldrich, M3148) in 1000 mL of water. The resulting solution was aliquoted and stored at −20° C. The hypoxanthine stock was made by dissolving 4 g of NaOH into 1000 mL of water. Afterwards, 13.6 g hypoxanthine (Sigma-Aldrich, H9377) was added to this mixture. The resulting solution was aliquoted and stored at −20° C.
(§4) Assay Setup. Trypanosoma brucei Lister 427 VSG221 (ATCC, PRA-382) cells were cultured in modified HMI-9 media. All experiments were performed in 384-well, white, solid bottom, tissue culture treated plates (Greiner, 781080). Assay ready plates were generated with duplicate 11-point compound dilution series that consisted of 2-fold stepwise dilutions (0.4% DMSO final). To each well, was added 20 μL of 2 μg/mL of APOL1 G0, G1, or G2 recombinant protein in modified HMI-9 media using a MultiDrop Combi (final APOL1 protein concentration=[…]). Trypanosomes were counted using a hemacytometer and diluted in modified HMI-9 media to a concentration of 1.25×10^4 cell/mL. […]

[4] = tested on: Trypanosoma brucei Lister 427 VSG221 with APOL1 G1 recombinant protein; assay: APOL1 G1 trypanosome cell rescue assay (Example B5); details: Trypanosoma brucei, 20 h, read-out: APOL1 G1 Trypanosome Rescue EC50, Trypanosoma brucei Lister 427 VSG221 with APOL1 G1 recombinant protein, 20 hours, CellTiter-Glo; geometric mean of at least 2 assay runs; † = single assay run
Experimental: as §1, §2, §3, §4

[5] = tested on: Trypanosoma brucei Lister 427 VSG221 with APOL1 G2 recombinant protein; assay: APOL1 G2 trypanosome cell rescue assay (Example B5); details: Trypanosoma brucei, 20 h, read-out: APOL1 G2 Trypanosome Rescue EC50, Trypanosoma brucei Lister 427 VSG221 with APOL1 G2 recombinant protein, 20 hours, CellTiter-Glo; geometric mean of at least 2 assay runs; † = single assay run
Experimental: as §1, §2, §3, §4

Row | Compound | EC50 [1] [nM] | EC50 [2] [nM] | EC50 [3] [nM] | EC50 [4] [nM] | EC50 [5] [nM]
1 | CC1(O)CN(c2ncnc3cc(OCCN4CCC5(CC4)C(=O)Nc4ccc(Cl)cc45)cnc23)C1 [Compound 364, 5-chloro-1′-(2-{[4-(3-hydroxy-3-methylazetidin-1-yl)pyrido[3,2-d]pyrimidin-7-yl]oxy}ethyl)-1,2-dihydrospiro[indole-3,4′-piperidin]-2-one] | 112 | 239 | 155 | 203 | 92.3
2 | O=C1Nc2ccc(Cl)cc2C12CCN(CCOc1cnc3c(N4CC(O)C4)ncnc3c1)CC2 [Compound 366, 5-chloro-1′-(2-{[4-(3-hydroxyazetidin-1-yl)pyrido[3,2-d]pyrimidin-7-yl]oxy}ethyl)-1,2-dihydrospiro[indole-3,4′-piperidin]-2-one] | 80 | 136 | 66.4 | 87.3 | 32.4
3 | C[C@]1(O)C[C@@H](n2cnc3cc(OCCN4CCC5(CC4)C(=O)Nc4ccc(Cl)cc45)cnc32)C1 [Compound 367, 5-chloro-1′-[2-({3-[(cis)-3-hydroxy-3-methylcyclobutyl]-3H-imidazo[4,5-b]pyridin-6-yl}oxy)ethyl]-1,2-dihydrospiro[indole-3,4′-piperidin]-2-one] | 87.7 | 145 | 231 | 323 | 106
4 | C[C@]1(O)C[C@@H](N2C(=O)CCc3cc(OCCN4CCC5(CC4)C(=O)Nc4ccc(C#N)cc45)cnc32)C1 [Compound 404, 2-oxo-1′-[2-({7-oxo-8-[(cis)-3-hydroxy-3-methylcyclobutyl]-5,6,7,8-tetrahydro-1,8-naphthyridin-3-yl}oxy)ethyl]-1,2-dihydrospiro[indole-3,4′-piperidine]-5-carbonitrile] | 129 | 247 | 425 | 554 | 210
5 | CC1(O)CN(c2ncc(OCCN3CCC4(CC3)C(=O)Nc3ccc(Cl)cc34)cc2C(F)(F)F)C1 [Compound 405, 5-chloro-1′-(2-{[6-(3-hydroxy-3-methylazetidin-1-yl)-5-(trifluoromethyl)pyridin-3-yl]oxy}ethyl)-1,2-dihydrospiro[indole-3,4′-piperidin]-2-one] | 9.59 | 19.2 | 20 | 21.6 | 8.06
6 | C[C@]1(O)C[C@@H](n2c(=O)ccc3cc(OCCN4CCC5(CC4)C(=O)Nc4ccc(C#N)cc45)cnc32)C1 [Compound 406, 2-oxo-1′-[2-({7-oxo-8-[(cis)-3-hydroxy-3-methylcyclobutyl]-7,8-dihydro-1,8-naphthyridin-3-yl}oxy)ethyl]-1,2-dihydrospiro[indole-3,4′-piperidine]-5-carbonitrile] | 58.3 | 109 | 107 | 128 | 51.1
7 | CC1(O)CC(n2ncc3cc(OCCN4CCC5(CC4)C(=O)Nc4ccc(Cl)cc45)cnc32)C1 (stereo not shown) [Compound 407, 5-chloro-1′-(2-{[1-(3-hydroxy-3-methylcyclobutyl)-1H-pyrazolo[3,4-b]pyridin-5-yl]oxy}ethyl)-1,2-dihydrospiro[indole-3,4′-piperidin]-2-one] | 24.1 | 46.3 | 72.4 | 99.7 | 33
8 | CC1(C)OCC(c2ncc(OCCN3CCC4(CC3)C(=O)Nc3ccc(Cl)cc34)cn2)O1 (stereo not shown) [Compound 441, 5-chloro-1′-(2-{[2-(2,2-dimethyl-1,3-dioxolan-4-yl)pyrimidin-5-yl]oxy}ethyl)-1,2-dihydrospiro[indole-3,4′-piperidin]-2-one] | 57.4 | 96.1 | 144 | 215 | 78.3
9 | C[C@]1(O)C[C@@H](c2nc3cc(OCCN4CCC5(CC4)C(=O)Nc4ccc(Cl)cc45)cc(C(F)(F)F)c3[nH]2)C1 [Compound 466, 5-chloro-1′-[2-({2-[(cis)-3-hydroxy-3-methylcyclobutyl]-7-(trifluoromethyl)-1H-1,3-benzodiazol-5-yl}oxy)ethyl]-1,2-dihydrospiro[indole-3,4′-piperidin]-2-one] | 4.26 | 8.71 | 19.4 | 30.6 | 11.9
10 | C[C@]1(O)C[C@@H](n2c(=O)n(CO)c3cc(OCCN4CCC5(CC4)C(=O)Nc4ccc(Cl)cc45)cc(C(F)(F)F)c32)C1 [Compound 467, 5-chloro-1′-(2-{[3-(hydroxymethyl)-2-oxo-1-[(cis)-3-hydroxy-3-methylcyclobutyl]-7-(trifluoromethyl)-2,3-dihydro-1H-1,3-benzodiazol-5-yl]oxy}ethyl)-1,2-dihydrospiro[indole-3,4′-piperidin]-2-one] | 4.74 | 14.3 | 3.74 | 6.03 | 2.24
11 | C[C@]1(O)C[C@@H](n2c(=O)n(CO)c3cc(OCCN4CCC5(CC4)C(=O)Nc4ccc(C#N)cc45)cc(C(F)(F)F)c32)C1 [Compound 469, 1′-(2-{[3-(hydroxymethyl)-2-oxo-1-[(cis)-3-hydroxy-3-methylcyclobutyl]-7-(trifluoromethyl)-2,3-dihydro-1H-1,3-benzodiazol-5-yl]oxy}ethyl)-2-oxo-1,2-dihydrospiro[indole-3,4′-piperidine]-5-carbonitrile] | 19.9 | 48.7 | 9.76 | 15.5 | 5.33
